Broadly, the pEC50 is −log10 of the EC50, conventionally taken in molar units.

pEC50: −log10 of the molar value.

Among the data in BindingDB's records for doi:10.7270/Q2ZC817P (The Scripps Research Institute Molecular Screening Center, 2007) are EC50 values, retold here.

Chain of Sphingosine 1-phosphate receptor 1 (P21453 whole entry): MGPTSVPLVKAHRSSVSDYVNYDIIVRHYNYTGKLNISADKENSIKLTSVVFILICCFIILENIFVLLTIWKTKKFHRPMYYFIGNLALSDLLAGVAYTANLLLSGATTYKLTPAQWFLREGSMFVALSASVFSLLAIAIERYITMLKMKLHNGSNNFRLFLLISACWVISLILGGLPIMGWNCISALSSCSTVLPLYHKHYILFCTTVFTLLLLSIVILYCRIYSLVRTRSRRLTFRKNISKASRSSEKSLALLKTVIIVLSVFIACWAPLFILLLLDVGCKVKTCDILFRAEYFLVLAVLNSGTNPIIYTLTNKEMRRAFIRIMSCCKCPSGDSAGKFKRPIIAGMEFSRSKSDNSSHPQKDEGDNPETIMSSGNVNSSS

The first assay concerns the target Sphingosine 1-phosphate receptor 1 (Homo sapiens, UniProt P21453). In words: S1P1 agonism potentiation – cell-based, potentiator mode, 60K MLSMR set, dose response (AID 466).
Conditions: not given
On to `COc1ccc(-c2nc(-c3cccc(C)c3)no2)cc1OC` [5-(3,4-dimethoxyphenyl)-3-(3-methylphenyl)-1,2,4-oxadiazole], for which the negative-log EC50 (pEC50) is 5.97.
Turning to `CCOc1ccc(S(=O)(=O)N2CCN(c3ccc(C)cc3C)CC2)cc1` [1-(2,4-dimethylphenyl)-4-(4-ethoxyphenyl)sulfonyl-piperazine], the negative-log EC50 (pEC50) was below 4.02.
Regarding `CN(C)S(=O)(=O)c1ccc(C(=O)Nc2nc(-c3cccs3)cs2)cc1` [4-(dimethylsulfamoyl)-N-(4-thiophen-2-yl-1,3-thiazol-2-yl)benzamide], the pEC50 is below 5.00.
As to `CC(C)COC(=O)NCCOC(=O)Nc1cccc(Cl)c1` [2-(2-methylpropoxycarbonylamino)ethyl N-(3-chlorophenyl)carbamate], the negative-log EC50 (pEC50) is 5.09.
As for `Cc1cc(C(=O)Nc2sc(C)c(-c3ccc(F)cc3)c2C(N)=O)no1` [MLS000043467], the pEC50 is 5.26.
Consider `COc1ccc(-c2nc(-c3ccncc3)no2)cc1OC` [5-(3,4-dimethoxyphenyl)-3-(4-pyridyl)-1,2,4-oxadiazole], for which the negative-log EC50 (pEC50) is 5.92.
Still for that read-out and setting: in the case of `COc1ccc(-c2cn3c(C)c(C(=O)Nc4ccncc4)sc3n2)cc1` [6-(4-methoxyphenyl)-3-methyl-N-(4-pyridyl)imidazo[2,1-b]thiazole-2-carboxamide] it was below 5.00; in that of `O=S(=O)(NCc1ccncc1)c1ccc(Br)s1` [5-bromanyl-N-(pyridin-4-ylmethyl)thiophene-2-sulfonamide], 5.66; in that of `O=c1c(-c2ccc3c(c2)OCCO3)c(C(F)(F)F)oc2cc(O)cc(O)c12` [3-(2,3-dihydro-1,4-benzodioxin-6-yl)-5,7-bis(oxidanyl)-2-(trifluoromethyl)chromen-4-one], 5.42.
The same measure, in the same setting: in the case of `CCC(NCCOc1ccc(Cl)cc1)=C1C(=O)N(C)C(=O)N(C)C1=O` [5-[1-[2-(4-chlorophenoxy)ethylamino]propylidene]-1,3-dimethyl-1,3-diazinane-2,4,6-trione] it was 5.27; in that of `Fc1ccc2[nH]c3c(N4CCSCC4)ncnc3c2c1` [MLS000078401], 5.20; in that of `Clc1ccc(OCc2nc(-c3ccncc3)no2)c(Br)c1` [5-[(2-bromanyl-4-chloranyl-phenoxy)methyl]-3-pyridin-4-yl-1,2,4-oxadiazole], 5.46.
Regarding `O=C(Nc1ccccc1C(F)(F)F)c1cc(-c2ccc(O)cc2)on1` [5-(4-hydroxyphenyl)-N-[2-(trifluoromethyl)phenyl]isoxazole-3-carboxamide], the negative logarithm of the EC50 (pEC50) is 6.11.
Still for that read-out and setting: as for `COc1ccccc1-c1nc(-c2cccc(C)c2)no1` [5-(2-methoxyphenyl)-3-(3-methylphenyl)-1,2,4-oxadiazole], the figure is 6.00.
Turning to `CCOC(=O)c1ccc2c(c1)C(=O)N(C1CCCCC1)C2=O` [2-cyclohexyl-1,3-diketo-isoindoline-5-carboxylic acid ethyl ester], the negative-log EC50 (pEC50) was below 4.02.
Turning to `Cc1csc(NC(=O)c2nc(-c3ccccc3)n(-c3ccccc3)n2)n1` [MLS000058347], the pEC50 was 5.01.
On the same count and under the same terms, as for `CN(C)c1ccnc2sc3c(=O)n(Cc4ccccc4)cnc3c12` [3-Benzyl-9-dimethylamino-3H-pyrido[3',2':4,5]thieno[3,2-d]pyrimidin-4-one], the figure is 5.47; as for `Cn1nc(C(C)(C)C)cc1C(=O)NCc1ccc(N2CCCC2=O)cc1` [5-tert-Butyl-2-methyl-2H-pyrazole-3-carboxylic acid 4-(2-oxo-pyrrolidin-1-yl)-benzylamide], 5.35.
The same measure, in the same setting: as for `c1ccc2c(c1)oc1c(N3CCN(Cc4ccc5c(c4)OCO5)CC3)ncnc12`, the figure is 5.18; as for `CCCc1ccc(OCc2nc(-c3ccc(NC(=O)c4ccco4)cc3)no2)cc1` [MLS000097352], 5.39.
The same measure, in the same setting: in the case of `CCn1c(SCC(=O)Nc2nc3ccc(C)cc3s2)nc2c(c1=O)SC(C)C2` (stereo not drawn) [2-[(3-ethyl-4-keto-6-methyl-6,7-dihydrothieno[3,2-d]pyrimidin-2-yl)thio]-N-(6-methyl-1,3-benzothiazol-2-yl)acetamide] it was 5.11; in that of `COc1ccc(-n2nc3ccc(NS(C)(=O)=O)cc3n2)cc1Cl` [MLS000049114], 6.90.
On to `Cc1cccc(-c2nc(CSCC(=O)N3CCN(Cc4ccc5c(c4)OCO5)CC3)c(C)o2)c1` [1-(1,3-benzodioxol-5-ylmethyl)-4-[({[5-methyl-2-(3-methylphenyl)-1,3-oxazol-4-yl]methyl}thio)acetyl]piperazine], for which the pEC50 was 5.27.
On the same count and under the same terms, in the case of `COc1ccc(-c2nc(-c3ccccc3OC)no2)cc1OC` [5-(3,4-dimethoxyphenyl)-3-(2-methoxyphenyl)-1,2,4-oxadiazole] it was 6.86; in that of `CCc1ccc(S(=O)(=O)NCCc2csc(-c3ccccc3)n2)s1` [5-ethyl-N-[2-(2-phenyl-1,3-thiazol-4-yl)ethyl]thiophene-2-sulfonamide], 5.08; in that of `CCN(CC)C(=O)CS/C(=N/C#N)Nc1ccccc1F` [2-[[N-cyano-N'-(2-fluorophenyl)amidino]thio]-N,N-diethyl-acetamide], below 4.02.
Regarding `CCc1c(C)sc(NC(=O)c2cc(-c3ccco3)on2)c1C#N` [MLS000087225], the negative logarithm of the EC50 (pEC50) was 5.44.
On the same count and under the same terms, as for `COc1cc(C(=O)N2CCN(S(=O)(=O)c3ccc(C)cc3)CC2)ccc1OCc1c(C)noc1C` [MLS000056221], the figure is below 4.02; as for `CCn1c(-c2cccc(Cl)c2)n[nH]c1=S` [SMR000104244], below 4.02; as for `CC(=N)C(C#N)C(=O)CSc1nc2cc(Cl)ccc2s1` (stereo not drawn) [(E)-3-amino-2-[2-[(5-chloro-1,3-benzothiazol-2-yl)sulfanyl]acetyl]but-2-enenitrile], 4.95.
The same measure, in the same setting: as for `O=C(NCc1ccco1)C1CCN(C(=O)c2cc3sccc3n2Cc2ccc(Cl)cc2)CC1` [1-[4-(4-chlorobenzyl)thieno[3,2-b]pyrrole-5-carbonyl]-N-(2-furfuryl)isonipecotamide], the figure is 5.01; as for `Cc1cc(C(=O)CSc2nnc(-c3ccco3)o2)c(C)n1-c1ccc2c(c1)OCCO2` [1-[1-(2,3-dihydro-1,4-benzodioxin-6-yl)-2,5-dimethyl-3-pyrrolyl]-2-[[5-(2-furanyl)-1,3,4-oxadiazol-2-yl]thio]ethanone], 5.03; as for `O=S(=O)(Nc1ccc2c(c1)OCCO2)c1ccc2oc3ccccc3c2c1` [MLS000051884], 5.13.
On the same count and under the same terms, in the case of `O=S(=O)(CCSc1ccccn1)c1nc2ccccc2s1` [2-(2-pyridin-2-ylsulfanylethylsulfonyl)-1,3-benzothiazole] it was 5.01; in that of `COc1ccc(CCNc2ncnc3c2oc2ccccc23)cc1OC` [MLS000041708], 6.22.

The assay is the same for the next values; noted with them: inactive by the depositor's call.
Consider `COc1cccc(-c2nnc3sc(C4CCCCC4)nn23)c1` [6-cyclohexyl-3-(3-methoxyphenyl)-[1,2,4]triazolo[3,4-b][1,3,4]thiadiazole], for which the pEC50 was 4.51.
On the same count and under the same terms, in the case of `Cc1ccc(-c2nc(COC(=O)c3c(C)noc3C)cs2)cc1` [3,5-dimethyl-4-isoxazolecarboxylic acid [2-(4-methylphenyl)-4-thiazolyl]methyl ester] it was 4.56.
Same read-out and setting: as for `CCc1ccc2c(COC(=O)c3n[nH]c4ccccc34)cc(=O)oc2c1` [(7-ethyl-2-oxochromen-4-yl)methyl 1H-indazole-3-carboxylate], the figure is 4.98; as for `CCCC(=O)c1ccc(N2CCN(C(=O)c3ccccc3Br)CC2)c(F)c1` [1-[4-[4-(2-bromobenzoyl)piperazin-1-yl]-3-fluorophenyl]butan-1-one], 4.92.
On the same count and under the same terms, as for `CCOC(=O)c1sc2nc(NC(=O)C(C)(C)C)sc2c1C` [2-[(2,2-dimethyl-1-oxopropyl)amino]-6-methyl-5-thieno[2,3-d]thiazolecarboxylic acid ethyl ester], the figure is 5.00.
For `Cc1ccc(N2C(=O)c3cccc4c(N5CCN(C)CC5)ccc(c34)C2=O)c2cccnc12` [6-(4-methyl-1-piperazinyl)-2-(8-methyl-5-quinolinyl)-1H-benzo[de]isoquinoline-1,3(2H)-dione], the negative logarithm of the EC50 (pEC50) was 4.48.
On to `Cc1ccc(OCCn2cc(C(=N)NO)c3ccccc32)cc1C` [1-[2-(3,4-dimethylphenoxy)ethyl]-N'-hydroxy-1H-indole-3-carboximidamide], for which the negative logarithm of the EC50 (pEC50) was 4.95.
Same read-out and setting: as for `CC(=O)Nc1ccc(S(=O)(=O)N2CCN(c3cccc(C)c3C)CC2)cc1` [MLS000115810], the figure is 4.78; as for `Cc1nn(Cc2ccc(Cl)cc2)c(C)c1NC(=O)c1cc(-c2ccco2)on1` [MLS000087233], 4.85; as for `COc1ccc(-c2cc(C(=O)NC3CCCC3)no2)cc1OC` [MLS000087117], 4.86.
The same measure, in the same setting: as for `COc1ccc2c(c1)-c1nc(NC(=O)c3cccs3)sc1CC2` [N-(8-methoxy-4,5-dihydrobenzo[e][1,3]benzothiazol-2-yl)-2-thiophenecarboxamide], the figure is 4.69; as for `COc1ccc(-c2nc(-c3cccc(C(F)(F)F)c3)no2)cc1OC` [5-(3,4-dimethoxyphenyl)-3-[3-(trifluoromethyl)phenyl]-1,2,4-oxadiazole], 4.73; as for `CC(=O)N1CCCc2cc(S(=O)(=O)NCCC3=CCCCC3)ccc21` [1-acetyl-N-(2-cyclohex-1-en-1-ylethyl)-1,2,3,4-tetrahydroquinoline-6-sulfonamide], 4.87.
The same measure, in the same setting: in the case of `O=C(C1CC1)N1CCc2cc(S(=O)(=O)NCC3COc4ccccc4O3)ccc21` (stereo not drawn) [1-(cyclopropanecarbonyl)-N-(2,3-dihydro-1,4-benzodioxin-3-ylmethyl)-2,3-dihydroindole-5-sulfonamide] it was 4.86.
Consider `COc1ccc(S(=O)(=O)Cc2ccc(C(=O)N3CCN(c4ccc(Cl)cc4)CC3)o2)cc1` [MLS000120227], for which the pEC50 is 4.83.
Same read-out and setting: as for `COc1ccc(CNc2cc(C)nc3ncnn23)c(OC)c1` [(2,4-Dimethoxy-benzyl)-(5-methyl-[1,2,4]triazolo[1,5-a]pyrimidin-7-yl)-amine], the figure is 4.80.
The same measure, in the same setting: as for `COc1ccccc1-c1cc(C(=O)Nc2cc(C)nn2-c2ccccc2)no1` [5-(2-methoxyphenyl)-N-(3-methyl-1-phenyl-1H-pyrazol-5-yl)isoxazole-3-carboxamide], the figure is 4.24; as for `Oc1c(C(c2ccco2)N2CCN(C(c3ccccc3)c3ccccc3)CC2)sc2ncnn12` (stereo not drawn) [5-[(4-benzhydrylpiperazin-1-yl)-(furan-2-yl)methyl]-[1,3]thiazolo[3,2-b][1,2,4]triazol-6-ol], 4.70.
